One test concerns Human NK cells. The test can be described thus: IFN-γ ELISA of purified NK cells. Format: cell-based. The method, then: A total of 1×10^5 highly purified human NK cells were cultured for 20 hours in medium supplemented with 20 U/ml IL-2, and 10 ng/ml IL-12. Either human recombinant activin-A, or TGF-β was added to the cultures, at concentrations of 10, 50 and 100 ng/ml. Supernatants were then tested for IFN-γ via ELISA, using standard methods. In these experiments 1×10^5 highly purified human NK cells were cultured as above, but were cultured with Poly I:C (10 μg/ml), or LPS (100 ng/ml), with or without 10, 50, or 100 ng/ml of recombinant human activin-A. In some cases, the known compound “SB431542,” which blocks activin-A binding to receptors was added. IFN-γ was then measured via ELISA, or by intracellular cytokine staining after 16 hours of culture, via addition of 1 μg/ml BFA, to prevent cytokine release. The impact of activin-A on production of IFN-γ by NK cells, in the absence of dendritic cells, was ascertained. Purified NK cells (1×10^5) were cultured in 96 well-plants, in media that was supplemented with 20 U/ml IL-2 and 10 ng/ml, IL-12, in the absence of, or with increasing concentrations of either activin-A, or TGF-β. Culture supernatants were assayed for IFN-γ after 24 hours of culture, using ELISAs, as described supra. As in the prior experiments, 1×10^5 purified NK cells were cultured in media supplemented with IL-2 only, or IL-2 plus IL-12, either with or without one of poly I:C or LPS, in the presence or absence of increased levels of activin-A.
Background: An ELISA detects its analyte on a solid surface through an enzyme-linked reagent.

Another test relates to NK cells. The test can be described thus: NKp30 expression on NK cells by flow cytometry. It is filed as cell-based, human. The settings on record: NK cells after 3 day culture, 100 ng/ml. The method, then: In order to investigate the mechanism behind these differences, the same NK cells were purified and cryopreserved immediately after the 3 day culture period. The cells were thawed, washed, and stained for NCR. NKp30, with expression levels determined via flow cytometry. The level of expression was also determined using “ex vivo” samples, and NK cells that were cultured, without exposure to targets.
For orientation: A flow cytometer gives signals particle by particle.

As for activin-A, the IFN-γ production entry in the test on Human NK cells (NK cells stimulated with Poly I:C, activin-A 10, 50, 100 ng/ml) is “suppressed IFN-γ production”; in the test with Human NK cells (NK cells, IL-2 and IL-12, 20 hours, 10, 50, 100 ng/ml), “as effective as TGF-β in suppressing the production of IFN-γ”; in the test on Human NK cells (NK cells, IL-2 and IL-12, 24 hours, increasing concentrations), “as potent as TGF-β in inhibiting IFN-γ production”; with Human NK cells (NK cells, IL-2 plus IL-12 with poly I:C or LPS, increased levels of activin-A), “suppressed by addition of activin-A, in a concentration dependent manner”. Moreover, the NKp30 expression result in the test with NK cells is recorded as “a very limited effect”.
